The results in this text go back to ChEMBL document CHEMBL5724914, “Linking interpersonal differences in gut microbiota composition and drug biotransformation activity” (2024).

The conditions of data set [1]: human gut metagenome, 24 h, 2 µM.
The conditions of data set [2]: human gut metagenome, 24 h, 2 µM. This is another data set of the same source.
The nature of data set [3]: The drug is tested on Z-012 corresponding to metagenome with ENA study accession number: PRJEB37062 and ENA sample accession number: ERS12561812 for biotransformation under anaerobic condition. The drug concentrations were measured over 9 timepoints collected between 0 and 24 hours of incubation by liquid-chromatography-coupled mass spectrometry (LC–MS). As to conditions: 2 µM.

Data set [4] in a line: The drug is tested on Z-016 corresponding to mouse gut metagenome with ENA study accession number: PRJEB37062 and ENA sample accession number: ERS12561815 for biotransformation under anaerobic condition. The drug concentrations were measured over 9 timepoints collected between 0 and 24 hours of incubation by liquid-chromatography-coupled mass spectrometry (LC–MS). As to conditions: 2 µM.

Data set [5] is described as follows: The drug is tested on WLS-090 corresponding to human gut metagenome with ENA study accession number: PRJEB37062 and ENA sample accession number: ERS12561753 for biotransformation under anaerobic condition. The drug concentrations were measured over 9 timepoints collected between 0 and 24 hours of incubation by liquid-chromatography-coupled mass spectrometry (LC–MS). As to conditions: 2 µM.

For data set [6] the following is noted: human gut metagenome, 24 h, 2 µM. The source holds these as a separate data set.
For data set [7] the following is noted: human gut metagenome, 24 h, 2 µM. The source holds these as a separate data set.
Data set [8] is described as follows: The drug is tested on Z-019 corresponding to rat gut metagenome with ENA study accession number: PRJEB37062 and ENA sample accession number: ERS12561818 for biotransformation under anaerobic condition. The drug concentrations were measured over 9 timepoints collected between 0 and 24 hours of incubation by liquid-chromatography-coupled mass spectrometry (LC–MS). The settings on record: 2 µM.

For data set [9] the following is noted: human gut metagenome, 24 h, 2 µM. This is another data set of the same source.
The nature of data set [10]: The drug is tested on WLS-310 corresponding to human gut metagenome with ENA study accession number: PRJEB37062 and ENA sample accession number: ERS12561785 for biotransformation under anaerobic condition. The drug concentrations were measured over 9 timepoints collected between 0 and 24 hours of incubation by liquid-chromatography-coupled mass spectrometry (LC–MS). As to conditions: 2 µM.

The conditions of data set [11]: human gut metagenome, 24 h, 2 µM. The source holds these as a separate data set.
For data set [12] the following is noted: human gut metagenome, 24 h, 2 µM. The source holds these as a separate data set.
A short description of data set [13]: The drug is tested on Z-018 corresponding to pig gut metagenome with ENA study accession number: PRJEB37062 and ENA sample accession number: ERS12561817 for biotransformation under anaerobic condition. The drug concentrations were measured over 9 timepoints collected between 0 and 24 hours of incubation by liquid-chromatography-coupled mass spectrometry (LC–MS). The settings on record: 2 µM.

For data set [14] the following is noted: human gut metagenome, 24 h, 2 µM. The source holds these as a separate data set.
The nature of data set [15]: The drug is tested on WLS-220 corresponding to human gut metagenome with ENA study accession number: PRJEB37062 and ENA sample accession number: ERS12561769 for biotransformation under anaerobic condition. The drug concentrations were measured over 9 timepoints collected between 0 and 24 hours of incubation by liquid-chromatography-coupled mass spectrometry (LC–MS). As to conditions: 2 µM.

The conditions of data set [16]: human gut metagenome, 24 h, 2 µM. This is another data set of the same source.
Data set [17] in a line: The drug is tested on Z-027 corresponding to metagenome with ENA study accession number: PRJEB37062 and ENA sample accession number: ERS12561826 for biotransformation under anaerobic condition. The drug concentrations were measured over 9 timepoints collected between 0 and 24 hours of incubation by liquid-chromatography-coupled mass spectrometry (LC–MS). As to conditions: 2 µM.

A short description of data set [18]: The drug is tested on Z-014 corresponding to rat gut metagenome with ENA study accession number: PRJEB37062 and ENA sample accession number: ERS12561814 for biotransformation under anaerobic condition. The drug concentrations were measured over 9 timepoints collected between 0 and 24 hours of incubation by liquid-chromatography-coupled mass spectrometry (LC–MS). As to conditions: 2 µM.

A short description of data set [19]: The drug is tested on Z-023 corresponding to metagenome with ENA study accession number: PRJEB37062 and ENA sample accession number: ERS12561822 for biotransformation under anaerobic condition. The drug concentrations were measured over 9 timepoints collected between 0 and 24 hours of incubation by liquid-chromatography-coupled mass spectrometry (LC–MS). The settings on record: 2 µM.

Data set [20] is described as follows: The drug is tested on Z-004 corresponding to metagenome with ENA study accession number: PRJEB37062 and ENA sample accession number: ERS12561804 for biotransformation under anaerobic condition. The drug concentrations were measured over 9 timepoints collected between 0 and 24 hours of incubation by liquid-chromatography-coupled mass spectrometry (LC–MS). The settings on record: 2 µM.
Also: call rule not given here.

On to `C[C@@H](c1ncncc1F)[C@](O)(Cn1cncn1)c1ccc(F)cc1F` [VORICONAZOLE], for which the “Bacterial Biotransformation” value in data set [1], in [2], in data set [3], in data set [4], in [5] and in data set [6] was “Compound metabolized” throughout. Also, the “Bacterial Biotransformation” value in data set [7] was “Compound NOT metabolized”; in data set [8], “Compound NOT metabolized”; in [9], “Compound metabolized”; in [10], “Compound metabolized”; in data set [11], “Compound metabolized”; in data set [12], “Compound metabolized”. The “Bacterial Biotransformation” value in data set [13] is recorded as “Compound metabolized”; in [14], “Compound metabolized”; in [15], “Compound metabolized”; in data set [16] it was “Compound metabolized”; in data set [17] it was “Compound NOT metabolized”; in [18] it was “Compound NOT metabolized”. The figures for the “Bacterial Biotransformation” value in data set [19] and in data set [20] were “Compound metabolized” and “Compound NOT metabolized”, respectively.

Take `CC(=O)OCC(=O)[C@@]1(OC(C)=O)[C@@H](C)C[C@H]2[C@@H]3C[C@H](F)C4=CC(=O)C=C[C@]4(C)[C@@]3(F)[C@@H](O)C[C@@]21C` [DIFLORASONE DIACETATE]: the “Bacterial Biotransformation” value in [1], in [2], in data set [3], in [4], in data set [5] and in [6] was “Compound metabolized” in each case. Also, the “Bacterial Biotransformation” value is recorded as “Compound metabolized” in [7]; “Compound NOT metabolized” in data set [8]; “Compound metabolized” in data set [9]; “Compound metabolized” in [10]; “Compound metabolized” in [11]; “Compound metabolized” in data set [12]. Moreover, the “Bacterial Biotransformation” value was “Compound metabolized” in [13]; “Compound metabolized” in data set [14]; “Compound metabolized” in data set [15]; “Compound metabolized” in data set [16]; “Compound NOT metabolized” in data set [17]; “Compound NOT metabolized” in data set [18]. The “Bacterial Biotransformation” value in data set [19] and in data set [20] was “Compound NOT metabolized” in each case.

`CCN1CCCC1CNC(=O)c1cc(S(=O)(=O)CC)c(N)cc1OC` (stereo not given) [AMISULPRIDE]: the “Bacterial Biotransformation” value is given as “Compound NOT metabolized” in data set [1]; “Compound NOT metabolized” in data set [2]; “Compound NOT metabolized” in [3]; “Compound NOT metabolized” in data set [4]; “Compound metabolized” in data set [5]; “Compound NOT metabolized” in data set [6]. Further, the “Bacterial Biotransformation” value in [7] is on record as “Compound NOT metabolized”; in data set [8], “Compound NOT metabolized”; in data set [9], “Compound NOT metabolized”; in [10], “Compound metabolized”; in data set [11], “Compound NOT metabolized”; in [12] it was “Compound NOT metabolized”. In addition, the “Bacterial Biotransformation” value in data set [13], in data set [14], in data set [15], in data set [16], in data set [17] and in data set [18] was “Compound NOT metabolized” in each case. In addition, the “Bacterial Biotransformation” value in [19] and in data set [20] was “Compound NOT metabolized” throughout.

On to `CN1[C@@H]2CC[C@H]1C[C@@H](OC(=O)c1c[nH]c3ccccc13)C2` [TROPISETRON], for which the “Bacterial Biotransformation” value is on record as “Compound NOT metabolized” in [1]; “Compound NOT metabolized” in data set [2]; “Compound NOT metabolized” in data set [3]; “Compound NOT metabolized” in data set [4]; “Compound metabolized” in data set [5]; “Compound NOT metabolized” in data set [6]. Also, the “Bacterial Biotransformation” value in data set [7], in [8], in data set [9], in data set [10], in data set [11] and in data set [12] was “Compound NOT metabolized” throughout. Besides, the “Bacterial Biotransformation” value in data set [13], in [14], in [15], in [16], in data set [17] and in [18] was “Compound NOT metabolized” throughout. In addition, the “Bacterial Biotransformation” value in [19] and in data set [20] was “Compound NOT metabolized” throughout.

As for `CCOC(=O)[C@H](CCc1ccccc1)N[C@@H](C)C(=O)N1Cc2ccccc2C[C@H]1C(=O)O`, the “Bacterial Biotransformation” value in data set [1] is listed as “Compound metabolized”; in [2], “Compound metabolized”; in data set [3], “Compound NOT metabolized”; in data set [4], “Compound NOT metabolized”; in data set [5], “Compound metabolized”; in [6] it was “Compound NOT metabolized”. Moreover, the “Bacterial Biotransformation” value is recorded as “Compound NOT metabolized” in data set [7]; “Compound NOT metabolized” in [8]; “Compound metabolized” in data set [9]; “Compound metabolized” in data set [10]; “Compound NOT metabolized” in [11]; “Compound metabolized” in [12]. In addition, the “Bacterial Biotransformation” value in data set [13] was “Compound NOT metabolized”; in [14], “Compound metabolized”; in data set [15], “Compound metabolized”; in [16] it was “Compound NOT metabolized”; in data set [17], “Compound NOT metabolized”; in data set [18] it was “Compound NOT metabolized”. Also, the “Bacterial Biotransformation” value is recorded as “Compound metabolized” in [19] and “Compound NOT metabolized” in data set [20].
